According to patent publication US20230149507A1, “TREATMENT OF ALT CANCERS” (INSTITUTO DE MEDICINA MOLECULAR JOÃO LOBO ANTUNES, priority 2019, published 2023):

Assays:
[1] = tested on: U2OS and HeLa cells; assay: Indirect IF with anti-BLM and anti-TRF2 antibodies, camptothecin treatment; type: cell-based, human
Description: HeLa cervical cancer, HT1080 fibrosarcoma, and HEK293 embryonic kidney cells were purchased from ATCC. U2OS osteosarcoma cells were a kind gift from M. Lopes (IMCR, Zurich, Switzerland). HuO9, Saos2 and HOS osteosarcoma cells were a kind gift from B. Fuchs (Balgrist University Hospital, Zurich, Switzerland). WI-38 VA13 in vitro SV40-transformed lung fibroblasts were a kind gift from A. Londoño-Vallejo (CNRS, Paris, France). SKNAS neuroblastoma cells were a kind gift from O. Shakhova (University Hospital Zurich, Switzerland). HeLa, HT1080, HEK293, U2OS, and WI-38 VA13 cells were cultured in high glucose DMEM, GlutaMAX (Thermo Fisher Scientific) supplemented with 10% tetracycline-free fetal bovine serum (Pan BioTech) and 100 U/ml penicillin-streptomycin (Thermo Fisher Scientific). HuO9, Saos2, HOS and SKNAS cells were cultured in high glucose DMEM/F12, GlutaMAX (Thermo Fisher Scientific), supplemented with 10% tetracycline-free fetal bovine serum (Pan BioTech), 100 U/ml penicillin-streptomycin (Thermo Fisher Scientific) and non-essential amino acids (Thermo Fisher Scientific). Mycoplasma contaminations were tested using the VenorGeM Mycoplasma PCR Detection Kit (Minerva Biolabs) according to the manufacturer's instructions. […]

[2] = tested on: U-2 OS cells; assay: Terminal restriction fragment (TRF) analysis after FANCM siRNA; type: cell-based, human; details: FANCM depletion, siRNA 30 nM
Description: (§1) (a) Representative images of telomere (green) and γ-H2AX (red) colocalizations on metaphase spreads (meta-TIFs) in U-2 OS cells with or without FANCM depletion (left panel). Meta-TIFs are indicated by white arrows. Scale bars are 5 μm. Quantitation of TIFs (right panel). Scatterplot bars represent the mean±SEM. Out of 3 experiments, n≥81 metaphases scored per treatment, **p<0.005, Mann-Whitney test. (b) Native and denatured TRF analysis of U-2 OS cells with or without FANCM depletion. Colored arrows correspond to telomeric DNA species depicted in panel c. (c) Schematic of migration patterns for indicated telomeric species separated by two-dimensional gel electrophoresis (top panel). Two-dimensional TRF analysis of U-2 OS cells with or without FANCM depletion, hybridized under native and denatured conditions to detect the telomeric C-strand and G-strand (left and right panels). Colored arrows correspond to telomeric DNA species depicted in schematic. (d) Representative dot blot and quantitation of C-circle assays of U-2 OS cells with or without FANCM depletion. C-circle levels were normalized to the mean of scrambled control. Error bars represent the mean±SEM from n=3 experiments, *p<0.05, **p<0.005, Student's t-test. […] Out of 3 experiments, n≥150 cells scored per treatment, *p<0.05, **p<0.005, Mann-Whitney test. […]

[3] = tested on: U-2 OS ALT cells; assay: Metaphase-TIFs after FANCM knockdown with siRNA; type: cell-based, human; details: compared to the scrambled control; siRNA 30 nM, 72 h
Description: as §1

[4] = target: T1, BLM-TOP3A-RMI (BTR) complex (human, UniProt P54132 1-1417; Q13472 1-1001; Q9H9A7 1-625; Q96E14 2-147, limits assumed); assay: competition co-IP: peptide added to HEK-293 Flag-FANCM lysate, Flag IP, TOP3A immunoblot
T1 construct: Endogenous complex in cell lysates (BLM, TOP3A, RMI1, RMI2); In the co-IPs it is read out by TOP3A and/or RMI1 immunoblot
Experimental: For co-IP experiments involved the ER-inducible system, cells were lysed in IP buffer (20 mM Tris-HCl pH 7.5, 100 mM NaCl, 10% (v/v) glycerol, 0.5 mM EDTA, 1 mM DTT) supplemented with 1× mammalian protease inhibitor cocktail (Sigma Aldrich) and 50 U/ml Benzonase (Novagen) for 2 h at 4° C., with or without MM2 peptide variants (Mimotopes). Following lysis, NaCl concentration was increased to 250 mM, then the lysate cleared at 16,000×g for 15 mins. Supernatant was then mixed with 1 μg of α-FANCM (Abcam) or α-ER (Santa Cruz Biotechnology) and 20 μl protein G sepharose (GE Healthcare), or using α-Flag M2 agarose (Sigma Aldrich). Following 3 h of mixing at 4° C., beads were washed 4× with IP buffer, and 1× with 50 mM NH₄(CO₃)₂, 0.5 mM EDTA, then eluted with 500 mM NH₄OH (pH 11.0), 0.5 mM EDTA. Samples were then lyophilized and resuspended in 1×LDS loading buffer (Life Technologies) prior to immunoblotting.
To explore the possibility of specifically targeting ALT cell viability through FANCM, two approaches to disrupt the FANCM-BTR complex were adopted. […] To investigate the effects of FANCM-BTR complex disruption in ALT cells, the MM2 peptide was rendered functionally dependent on tamoxifen by fusion to the C-terminus of the estrogen receptor (MM2-ER) (FIG. 11a). […]

T1 sequence (P54132 whole entry, chain 1 of 4): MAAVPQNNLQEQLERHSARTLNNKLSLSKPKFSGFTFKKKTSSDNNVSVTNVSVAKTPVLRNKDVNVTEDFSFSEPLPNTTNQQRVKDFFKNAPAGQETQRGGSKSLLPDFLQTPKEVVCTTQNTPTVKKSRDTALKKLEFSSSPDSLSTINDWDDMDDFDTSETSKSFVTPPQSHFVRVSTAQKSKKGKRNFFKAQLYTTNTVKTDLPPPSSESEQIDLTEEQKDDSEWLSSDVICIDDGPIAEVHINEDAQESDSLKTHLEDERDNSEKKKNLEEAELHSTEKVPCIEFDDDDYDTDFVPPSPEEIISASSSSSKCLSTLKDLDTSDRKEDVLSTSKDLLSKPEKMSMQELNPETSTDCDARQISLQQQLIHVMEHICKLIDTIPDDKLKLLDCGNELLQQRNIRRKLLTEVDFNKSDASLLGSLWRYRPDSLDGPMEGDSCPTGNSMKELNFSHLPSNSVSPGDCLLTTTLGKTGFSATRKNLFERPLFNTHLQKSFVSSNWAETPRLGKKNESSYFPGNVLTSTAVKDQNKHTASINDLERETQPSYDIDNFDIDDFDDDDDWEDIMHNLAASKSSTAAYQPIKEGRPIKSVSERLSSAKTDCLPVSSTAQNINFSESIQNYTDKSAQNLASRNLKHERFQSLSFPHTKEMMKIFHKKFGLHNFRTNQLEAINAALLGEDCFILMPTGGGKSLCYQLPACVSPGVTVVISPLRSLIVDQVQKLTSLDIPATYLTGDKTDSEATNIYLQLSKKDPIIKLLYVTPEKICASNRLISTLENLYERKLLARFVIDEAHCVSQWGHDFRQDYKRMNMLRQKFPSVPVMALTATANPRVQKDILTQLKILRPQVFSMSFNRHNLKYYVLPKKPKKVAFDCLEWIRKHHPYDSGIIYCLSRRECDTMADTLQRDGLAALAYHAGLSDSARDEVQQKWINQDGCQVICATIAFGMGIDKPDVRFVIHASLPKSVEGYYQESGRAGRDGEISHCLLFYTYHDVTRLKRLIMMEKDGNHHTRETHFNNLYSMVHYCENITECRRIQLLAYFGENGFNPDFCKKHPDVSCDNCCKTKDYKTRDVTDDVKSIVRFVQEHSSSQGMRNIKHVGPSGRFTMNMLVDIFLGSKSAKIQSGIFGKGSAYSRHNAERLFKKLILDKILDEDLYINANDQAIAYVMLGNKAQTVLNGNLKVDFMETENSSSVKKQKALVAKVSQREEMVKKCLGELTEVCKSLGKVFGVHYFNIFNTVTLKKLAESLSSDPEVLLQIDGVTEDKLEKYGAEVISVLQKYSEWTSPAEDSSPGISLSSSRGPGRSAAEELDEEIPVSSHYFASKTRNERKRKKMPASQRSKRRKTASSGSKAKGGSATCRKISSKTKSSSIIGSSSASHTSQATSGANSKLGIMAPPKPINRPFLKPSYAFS
T1 sequence (Q13472 whole entry, chain 2 of 4): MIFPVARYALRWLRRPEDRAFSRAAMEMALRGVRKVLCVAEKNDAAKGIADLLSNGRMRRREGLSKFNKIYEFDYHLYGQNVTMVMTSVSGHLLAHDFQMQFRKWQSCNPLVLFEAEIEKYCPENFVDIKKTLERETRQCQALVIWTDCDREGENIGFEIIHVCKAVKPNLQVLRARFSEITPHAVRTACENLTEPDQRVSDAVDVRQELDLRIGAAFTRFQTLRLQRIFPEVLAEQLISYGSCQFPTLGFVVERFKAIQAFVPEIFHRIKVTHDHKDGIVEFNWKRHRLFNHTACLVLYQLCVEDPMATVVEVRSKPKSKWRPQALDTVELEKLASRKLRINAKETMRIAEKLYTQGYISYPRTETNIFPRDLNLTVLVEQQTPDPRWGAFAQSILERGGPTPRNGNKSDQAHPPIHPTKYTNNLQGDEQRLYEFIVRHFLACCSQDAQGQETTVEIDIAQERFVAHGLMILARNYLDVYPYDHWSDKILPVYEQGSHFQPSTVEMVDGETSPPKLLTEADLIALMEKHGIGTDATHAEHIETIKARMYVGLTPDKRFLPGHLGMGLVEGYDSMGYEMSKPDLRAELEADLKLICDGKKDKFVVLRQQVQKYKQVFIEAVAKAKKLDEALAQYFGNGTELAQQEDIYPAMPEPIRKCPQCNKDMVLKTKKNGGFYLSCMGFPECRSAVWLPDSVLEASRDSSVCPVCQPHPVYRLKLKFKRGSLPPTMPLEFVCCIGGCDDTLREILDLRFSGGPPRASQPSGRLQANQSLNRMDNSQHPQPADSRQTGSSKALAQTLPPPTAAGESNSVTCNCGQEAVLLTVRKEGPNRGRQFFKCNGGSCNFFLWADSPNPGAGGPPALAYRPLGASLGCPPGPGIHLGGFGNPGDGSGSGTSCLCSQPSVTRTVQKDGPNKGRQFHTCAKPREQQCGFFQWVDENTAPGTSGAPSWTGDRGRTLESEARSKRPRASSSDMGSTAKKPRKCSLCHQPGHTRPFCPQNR
T1 sequence (Q9H9A7 whole entry, chain 3 of 4): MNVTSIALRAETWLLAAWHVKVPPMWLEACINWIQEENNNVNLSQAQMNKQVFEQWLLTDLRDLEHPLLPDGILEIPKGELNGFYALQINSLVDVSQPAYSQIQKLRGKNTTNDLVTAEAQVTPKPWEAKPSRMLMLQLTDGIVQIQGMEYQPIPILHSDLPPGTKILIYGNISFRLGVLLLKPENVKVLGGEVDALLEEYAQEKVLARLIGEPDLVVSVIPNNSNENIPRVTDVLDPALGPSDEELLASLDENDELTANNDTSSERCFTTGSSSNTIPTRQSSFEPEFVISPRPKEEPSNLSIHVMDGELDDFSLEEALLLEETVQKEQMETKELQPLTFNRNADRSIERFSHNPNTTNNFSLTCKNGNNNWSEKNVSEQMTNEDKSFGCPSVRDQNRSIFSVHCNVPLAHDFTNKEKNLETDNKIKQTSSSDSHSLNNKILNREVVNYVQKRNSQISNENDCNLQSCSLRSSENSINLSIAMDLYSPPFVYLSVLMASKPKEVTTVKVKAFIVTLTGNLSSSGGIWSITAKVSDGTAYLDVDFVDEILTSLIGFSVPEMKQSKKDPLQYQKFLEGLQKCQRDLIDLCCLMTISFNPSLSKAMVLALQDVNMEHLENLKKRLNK
T1 sequence (Q96E14 2-147 limits assumed, chain 4 of 4): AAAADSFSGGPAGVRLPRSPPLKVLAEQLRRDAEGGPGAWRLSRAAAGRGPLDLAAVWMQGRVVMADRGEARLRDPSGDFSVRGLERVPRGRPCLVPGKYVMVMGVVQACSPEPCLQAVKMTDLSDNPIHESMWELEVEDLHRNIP

## CC[C@@]1(O)C(=O)OCc2c1cc1n(c2=O)Cc2cc3ccccc3nc2-1 [CPT, Camptothecin]
[1]; all samples
  BLM TIF frequencies: marginally affected TIF frequencies
[1]; siCt-transfected U2OS and HeLa cells, 1 μM camptothecin for 3 hours
  nuclear (non-telomeric) BLM foci: robust formation of nuclear (non-telomeric) BLM foci

## siFANCM2: Silencer Select siRNA FANCM2 (s33621) (SEQ ID NO: 13) (GAACAUACAUCAGAUAGCA; listed as RNA, chemistry not given here)
[2]
  G-rich overhang and low molecular weight ss C-rich telomeric DNA (native TRF): most marked effects
[3]
  metaphase-TIFs (meta-TIFs): significant increase in metaphase-TIFs

B1: mutant human FANCM MM2 peptide containing the FF>AA mutant (peptide)
peptide: EDIFDCSRDLFSVTADLGACSPDSDDEILEHTSD
notes: also called MM2-FF>AA mutant peptide
[4]
  binding result: no binding (tested: 1-50 µM)
